Measured values taken from patent publication US8952024B2, “Herbicidal pyrimidone derivatives” (E I du Pont de Nemours and Company, priority 2009, dated 2015).

Experiments:
Assay type in all cases: in vivo
[1] = test system: pigweed (Amaranthus retroflexus); test: Test A pre-/postemergence plant response
Summary of the method: (§1)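 Plants grown from seed in a loam soil and sand mix received test compounds both as a preemergence soil spray and, at the same time, as a postemergence spray at the one- to two-leaf stage. Injury was judged visually against untreated controls roughly ten days later, 0 meaning no effect and 100 complete control.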

[2] = test system: giant foxtail (Setaria faberii); test: Test A pre-/postemergence plant response
Summary of the method: as §1

[3] = test system: large crabgrass (Digitaria sanguinalis); test: Test A pre-/postemergence plant response
Summary of the method: as §1

corn (Zea mays) = test: Test A pre-/postemergence plant response
Summary of the method: as §1

[4] = test system: velvetleaf (Abutilon theophrasti); test: Test A pre-/postemergence plant response
Summary of the method: as §1

[5] = test system: wheat (Triticum aestivum); test: Test A pre-/postemergence plant response
Summary of the method: as §1

[6] = test system: morningglory (Ipomoea spp.); test: Test A pre-/postemergence plant response
Summary of the method: as §1

[7] = test system: barnyardgrass (Echinochloa crus-galli); test: Test A pre-/postemergence plant response
Summary of the method: as §1

[8] = test system: windgrass (Apera spica-venti); test: Test B postemergence plant response; conditions: Postemergence; for Windgrass plant response rating: 250 g ai/ha, scale 0 to 100
From the text: (§2) At the same time, plants selected from these crop and weed species and also winter barley (Hordeum vulgare), canarygrass (Phalaris minor), chickweed (Stellaria media) and windgrass (Apera spica-venti) were planted in pots containing Redi-Earth® planting medium (Scotts Company, 14111 Scottslawn Road, Marysville, Ohio 43041) comprising spaghnum peat moss, vermiculite, wetting agent and starter nutrients and treated with postemergence applications of some of the test chemicals formulated in the same manner. Plants ranged in height from 2 to 18 cm (1- to 4-leaf stage) for postemergence treatments.
(§3) Treated plants and controls were maintained in a greenhouse for 13 to 15 days, after which time all treated plants were visually evaluated and compared to controls. Plant response ratings, summarized in Table B, are based on a scale of 0 to 100 where 0 is no effect and 100 is complete control. A dash (-) response means no test result.

[9] = test system: winter barley (Hordeum vulgare); test: Test B postemergence plant response; conditions: Postemergence; for Barley plant response rating: 250 g ai/ha, scale 0 to 100
From the text: as §2, §3

[10] = test system: chickweed (Stellaria media); test: Test B postemergence plant response; conditions: Postemergence; for Chickweed plant response rating: 250 g ai/ha, scale 0 to 100
From the text: as §2, §3

[11] = test system: canarygrass (Phalaris minor); test: Test B postemergence plant response; conditions: Postemergence; for Canarygrass plant response rating: 250 g ai/ha, scale 0 to 100
From the text: as §2, §3

[12] = Postemergence, 125 g ai/ha, visual injury, 0 to 100 scale (0 no effect, 100 complete control), approx. ten days
[13] = Postemergence, 500 g ai/ha, 0 to 100 scale, 0 = no effect, 100 = complete control, approx. ten days
[14] = Preemergence, 125 g ai/ha, 0 to 100 scale, 0 = no effect, 100 = complete control
[15] = Preemergence, 500 g ai/ha, visual injury, 0 to 100 scale (0 no effect, 100 complete control), approx. ten days
[16] = 31 g ai/ha, scale 0 to 100 (0 no effect, 100 complete control)
[17] = 62 g ai/ha, scale 0 (no effect) to 100 (complete control), 13 to 15 days
[18] = 125 g ai/ha, visual rating after 13 to 15 days, scale 0 (no effect) to 100 (complete control)
[19] = 125 g ai/ha, scale 0 to 100 (0 no effect, 100 complete control), 13 to 15 days

**Q.** What does the source list for “3-cyclohexyl-5-[(2-hydroxy-6-oxo-1-cyclohexen-1-yl)carbonyl]-2-phenyl-4(3H)-pyrimidinone [Compound 128]”?
**A.** Pigweed plant response rating [1, 12]: 90; Plant response rating, Pigweed [1, 13]: 100; Plant response rating, Pigweed [1, 14]: 60; Plant response rating, Pigweed [1, 15]: 100; Foxtail, Giant plant response rating [2, 12]: 70; Plant response rating, Foxtail, Giant [2, 13]: 90; Plant response rating, Foxtail, Giant [2, 14]: 10; Plant response rating, Foxtail, Giant [2, 15]: 50; Crabgrass, Large plant response rating [3, 12]: 50; Plant response rating, Crabgrass, Large [3, 13]: 90; Plant response rating, Crabgrass, Large [3, 14]: 20; Plant response rating, Crabgrass, Large [3, 15]: 90; Corn plant response rating (corn (Zea mays); [12]): 0; Plant response rating, Corn (corn (Zea mays); [13]): 20; Plant response rating, Corn (corn (Zea mays); [14]): 0; Plant response rating, Corn (corn (Zea mays); [15]): 0; Velvetleaf plant response rating [4, 12]: 100; Plant response rating, Velvetleaf [4, 13]: 100; Plant response rating, Velvetleaf [4, 14]: 60; Plant response rating, Velvetleaf [4, 15]: 100; Wheat plant response rating [5, 12]: 0; Plant response rating, Wheat [5, 13]: 0; Plant response rating, Wheat [5, 14]: 0; Plant response rating, Wheat [5, 15]: 0; Morningglory plant response rating [6, 12]: 90; Plant response rating, Morningglory [6, 13]: 90; Plant response rating, Morningglory [6, 14]: 0; Plant response rating, Morningglory [6, 15]: 70; Barnyardgrass plant response rating [7, 12]: 40; Plant response rating, Barnyardgrass [7, 13]: 100; Plant response rating, Barnyardgrass [7, 14]: 0; Plant response rating, Barnyardgrass [7, 15]: 70; Plant response rating, Windgrass [8, 16]: 40; Plant response rating, Windgrass [8, 17]: 85; Plant response rating, Windgrass [8, 18]: 85; Windgrass plant response rating [8]: 98; Plant response rating, Barley [9, 16]: 0; Plant response rating, Barley [9, 17]: 10; Plant response rating, Barley [9, 19]: 10; Barley plant response rating [9]: 10; Plant response rating, Chickweed [10, 16]: 80; Plant response rating, Chickweed [10, 17]: 98; Plant response rating, Chickweed [10, 18]: 100; Chickweed plant response rating [10]: 100; Plant response rating, Canarygrass [11, 16]: 50; Plant response rating, Canarygrass [11, 17]: 50; Plant response rating, Canarygrass [11, 18]: 90; Canarygrass plant response rating [11]: 90

**Q.** “5-[(2-hydroxy-6-oxo-1-cyclohexen-1-yl)carbonyl]-2,3-diphenyl-4(3H)-pyrimidinone [Compound 2]” was tested. Which “Pigweed plant response rating” value [1, 12] did it give?
**A.** The value was 70.

**Q.** And the “Plant response rating, Pigweed” value [1, 13]?
**A.** The value was 80.

**Q.** And the “Plant response rating, Pigweed” value [1, 14]?
**A.** Its value is 20.

**Q.** What about the “Plant response rating, Pigweed” value [1, 15] of the same substance?
**A.** The value was 100.

**Q.** What about the “Foxtail, Giant plant response rating” value [2, 12] of the same substance?
**A.** Its value is 10.

**Q.** What about the “Plant response rating, Foxtail, Giant” value [2, 13] of the same substance?
**A.** Its value is 40.

**Q.** And the “Plant response rating, Foxtail, Giant” value [2, 14]?
**A.** Its value is 0.

**Q.** What about the “Plant response rating, Foxtail, Giant” value [2, 15] of the same substance?
**A.** The value was 10.

**Q.** What about the “Crabgrass, Large plant response rating” value [3, 12] of the same substance?
**A.** The value was 50.

**Q.** What about the “Plant response rating, Crabgrass, Large” value [3, 13] of the same substance?
**A.** The value was 80.

**Q.** And the “Plant response rating, Crabgrass, Large” value [3, 14]?
**A.** Its value is 10.

**Q.** What about the “Plant response rating, Crabgrass, Large” value [3, 15] of the same substance?
**A.** The value was 70.

**Q.** And the “Corn plant response rating” value (corn (Zea mays); [12])?
**A.** The value was 0.

**Q.** What about the “Plant response rating, Corn” value (corn (Zea mays); [13]) of the same substance?
**A.** Its value is 0.

**Q.** And the “Plant response rating, Corn” value (corn (Zea mays); [14])?
**A.** The value was 0.

**Q.** And the “Plant response rating, Corn” value (corn (Zea mays); [15])?
**A.** The value was 0.

**Q.** What about the “Velvetleaf plant response rating” value [4, 12] of the same substance?
**A.** The value was 100.

**Q.** And the “Plant response rating, Velvetleaf” value [4, 13]?
**A.** The value was 100.

**Q.** And the “Plant response rating, Velvetleaf” value [4, 14]?
**A.** The value was 60.

**Q.** What about the “Plant response rating, Velvetleaf” value [4, 15] of the same substance?
**A.** Its value is 80.

**Q.** And the “Wheat plant response rating” value [5, 12]?
**A.** The value was 10.

**Q.** And the “Plant response rating, Wheat” value [5, 13]?
**A.** Its value is 20.

**Q.** What about the “Plant response rating, Wheat” value [5, 14] of the same substance?
**A.** The value was 0.

**Q.** And the “Plant response rating, Wheat” value [5, 15]?
**A.** Its value is 0.

**Q.** What about the “Morningglory plant response rating” value [6, 12] of the same substance?
**A.** The value was 70.

**Q.** And the “Plant response rating, Morningglory” value [6, 13]?
**A.** Its value is 90.

**Q.** And the “Plant response rating, Morningglory” value [6, 15]?
**A.** Its value is 50.

**Q.** And the “Barnyardgrass plant response rating” value [7, 12]?
**A.** The value was 20.

**Q.** And the “Plant response rating, Barnyardgrass” value [7, 13]?
**A.** The value was 60.

**Q.** And the “Plant response rating, Barnyardgrass” value [7, 14]?
**A.** The value was 0.

**Q.** What about the “Plant response rating, Barnyardgrass” value [7, 15] of the same substance?
**A.** Its value is 10.

**Q.** What about the “Plant response rating, Windgrass” value [8, 16] of the same substance?
**A.** Its value is 0.

**Q.** And the “Plant response rating, Windgrass” value [8, 17]?
**A.** Its value is 0.

**Q.** What about the “Plant response rating, Windgrass” value [8, 18] of the same substance?
**A.** Its value is 0.

**Q.** What about the “Windgrass plant response rating” value [8] of the same substance?
**A.** The value was 5.

**Q.** And the “Plant response rating, Barley” value [9, 16]?
**A.** The value was 0.

**Q.** What about the “Plant response rating, Barley” value [9, 17] of the same substance?
**A.** The value was 0.

**Q.** And the “Plant response rating, Barley” value [9, 19]?
**A.** Its value is 0.

**Q.** And the “Barley plant response rating” value [9]?
**A.** Its value is 0.

**Q.** And the “Plant response rating, Chickweed” value [10, 16]?
**A.** Its value is 55.

**Q.** And the “Plant response rating, Chickweed” value [10, 17]?
**A.** The value was 60.

**Q.** What about the “Plant response rating, Chickweed” value [10, 18] of the same substance?
**A.** The value was 65.

**Q.** And the “Chickweed plant response rating” value [10]?
**A.** The value was 90.

**Q.** What about the “Plant response rating, Canarygrass” value [11, 16] of the same substance?
**A.** The value was 0.

**Q.** And the “Plant response rating, Canarygrass” value [11, 17]?
**A.** Its value is 0.

**Q.** And the “Plant response rating, Canarygrass” value [11, 18]?
**A.** The value was 0.

**Q.** And the “Canarygrass plant response rating” value [11]?
**A.** Its value is 0.
